pIC50: −log10 of the molar value.
Biological target: c-kit WT (Homo sapiens (Human), UniProt P10721)
Test: Proliferation assay (CellTiter-Blue) on BaF3 Kit WT cell line
Assay type: cell-based
Conditions: BaF3 Kit WT cell line (murine Ba/F3 expressing Human Kit WT, with murine SCF), 48 hours
How it was run: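 Ba/F3 cells expressing human Kit WT, maintained in RPMI/10% FCS with 250 ng/ml murine SCF, were seeded at 2.10^4 cells/well and exposed to ½ serial dilutions (0–10 μM) for 48 h at 37° C. Viability was measured by CellTiter-Blue fluorescence (544Ex/590Em, 4 h) in triplicate as % of untreated proliferation.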

Chain of c-kit WT (P10721 26-976): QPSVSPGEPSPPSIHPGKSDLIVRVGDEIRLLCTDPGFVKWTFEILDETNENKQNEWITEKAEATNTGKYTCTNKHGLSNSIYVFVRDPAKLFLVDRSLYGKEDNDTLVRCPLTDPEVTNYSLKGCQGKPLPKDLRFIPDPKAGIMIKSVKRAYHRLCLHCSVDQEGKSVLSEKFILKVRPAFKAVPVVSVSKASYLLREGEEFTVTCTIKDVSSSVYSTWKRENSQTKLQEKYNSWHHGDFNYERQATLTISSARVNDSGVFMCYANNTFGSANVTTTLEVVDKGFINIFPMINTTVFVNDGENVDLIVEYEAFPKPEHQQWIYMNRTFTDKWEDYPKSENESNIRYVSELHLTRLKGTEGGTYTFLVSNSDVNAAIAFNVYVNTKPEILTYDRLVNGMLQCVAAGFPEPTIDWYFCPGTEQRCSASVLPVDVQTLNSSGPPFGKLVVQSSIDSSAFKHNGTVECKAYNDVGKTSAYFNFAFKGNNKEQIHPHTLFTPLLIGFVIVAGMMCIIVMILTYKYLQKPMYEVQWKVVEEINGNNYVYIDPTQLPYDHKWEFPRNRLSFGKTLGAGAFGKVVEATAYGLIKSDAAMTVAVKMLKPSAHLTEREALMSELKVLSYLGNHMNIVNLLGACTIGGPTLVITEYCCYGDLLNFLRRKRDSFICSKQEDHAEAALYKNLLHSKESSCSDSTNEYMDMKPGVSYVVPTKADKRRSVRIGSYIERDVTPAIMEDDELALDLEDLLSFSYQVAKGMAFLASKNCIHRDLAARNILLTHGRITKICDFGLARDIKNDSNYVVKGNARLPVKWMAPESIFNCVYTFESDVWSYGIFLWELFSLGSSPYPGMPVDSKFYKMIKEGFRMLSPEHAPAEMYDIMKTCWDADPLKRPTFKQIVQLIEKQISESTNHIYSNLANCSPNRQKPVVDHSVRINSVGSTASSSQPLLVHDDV

| pIC50 | SMILES |
| --- | --- |
| 5.00 to 6.00 | CCS(=O)(=O)Nc1cccc(-c2nc3cc(Nc4nc(-c5ccncc5)cs4)c(C)cc3n2C)c1 [Compound 134, Ethanesulfonic acid {3-[1,6-dimethyl-5-(4-pyridin-4-yl-thiazol-2-ylamino)-1H-benzoimidazol-2-yl]-phenyl}-amide] |
| 5.00 to 6.00 | C=CS(=O)(=O)Nc1cccc(-c2nc3cc(Nc4nc(-c5ccncc5)cs4)c(C)cc3n2C)c1 [Compound 135, Ethenesulfonic acid {3-[1,6-dimethyl-5-(4-pyridin-4-yl-thiazol-2-ylamino)-1H-benzoimidazol-2-yl]-phenyl}-amide] |
| ≥ 6.00 | Cc1cc2[nH]c(-c3cccc(C(C)C)c3)nc2cc1Nc1nc(-c2cccnc2)cs1 [Compound 136, [2-(3-Isopropyl-phenyl)-6-methyl-1H-benzoimidazol-5-yl]-(4-pyridin-3-yl-thiazol-2-yl)-amine] |
| ≥ 6.00 | Cc1cc2[nH]c(-c3cccc(C(C)(C)C)c3)nc2cc1Nc1nc(-c2cccnc2)cs1 [Compound 137, [2-(3-tert-Butyl-phenyl)-6-methyl-1H-benzoimidazol-5-yl]-(4-pyridin-3-yl-thiazol-2-yl)-amine] |
| ≥ 6.00 | Cc1cc2c(cc1Nc1nc(-c3ccc(C#N)cc3)cs1)nc(-c1cc(F)cc(C(F)(F)F)c1)n2C [Compound 138, 4-{2-[2-(3-Fluoro-5-trifluoromethyl-phenyl)-1,6-dimethyl-1H-benzoimidazol-5-ylamino]-thiazol-4-yl}-benzonitrile] |
| ≥ 6.00 | C#Cc1cccc(-c2nc3cc(Nc4nc(-c5cccnc5)cs4)c(C)cc3[nH]2)c1 [Compound 139, [2-(3-Ethynyl-phenyl)-6-methyl-1H-benzoimidazol-5-yl]-(4-pyridin-3-yl-thiazol-2-yl)-amine] |
| ≥ 6.00 | Cc1cc2c(cc1Nc1nc(-c3cccnc3)cs1)nc(-c1cccc(C(C)C)c1)n2C [Compound 140, [2-(3-Isopropyl-phenyl)-1,6-dimethyl-1H-benzoimidazol-5-yl]-(4-pyridin-3-yl-thiazol-2-yl)-amine] |
| ≥ 6.00 | C#Cc1cccc(-c2nc3cc(Nc4nc(-c5ccc(C#N)cc5)cs4)c(C)cc3[nH]2)c1 [Compound 141, 4-{2-[2-(3-Ethynyl-phenyl)-6-methyl-1H-benzoimidazol-5-ylamino]-thiazol-4-yl}-benzonitrile] |
| ≥ 6.00 | Cc1cc2c(cc1Nc1nc(-c3ccc(C#N)cc3)cs1)nc(-c1cccc(C(C)C)c1)n2C [Compound 142, 4-{2-[2-(3-Isopropyl-phenyl)-1,6-dimethyl-1H-benzoimidazol-5-ylamino]-thiazol-4-yl}-benzonitrile] |
| ≥ 6.00 | Cc1cc2[nH]c(-c3cccc(C(C)C)c3)nc2cc1Nc1nc(-c2ccc(C#N)cc2)cs1 [Compound 143, 4-{2-[2-(3-Isopropyl-phenyl)-6-methyl-1H-benzoimidazol-5-ylamino]-thiazol-4-yl}-benzonitrile] |
| ≥ 6.00 | Cc1cc2c(cc1Nc1nc(-c3ccc(C#N)cc3)cs1)nc(-c1cccc(C(C)(C)C)c1)n2C [Compound 144, 4-{2-[2-(3-tert-Butyl-phenyl)-1,6-dimethyl-1H-benzoimidazol-5-ylamino]-thiazol-4-yl}-benzonitrile] |
| ≥ 6.00 | Cc1cc2c(cc1Nc1nc(-c3cccnc3)cs1)nc(-c1cccc(C(C)(C)C)c1)n2C [Compound 145, [2-(3-tert-Butyl-phenyl)-1,6-dimethyl-1H-benzoimidazol-5-yl]-(4-pyridin-3-yl-thiazol-2-yl)-amine] |
| ≥ 6.00 | C#Cc1cccc(-c2nc3cc(Nc4nc(-c5cccnc5)cs4)c(C)cc3n2C)c1 [Compound 146, [2-(3-Ethynyl-phenyl)-1,6-dimethyl-1H-benzoimidazol-5-yl]-(4-pyridin-3-yl-thiazol-2-yl)-amine] |
| ≥ 6.00 | Cc1cc2c(cc1Nc1nc(-c3ccncc3)cs1)nc(-c1cc(F)cc(C(F)(F)F)c1)n2C [Compound 147, [2-(3-Fluoro-5-trifluoromethyl-phenyl)-1,6-dimethyl-1H-benzoimidazol-5-yl]-(4-pyridin-4-yl-thiazol-2-yl)-amine] |
| ≥ 6.00 | Cc1cc2c(cc1Nc1nc(-c3cccnc3)cs1)nc(-c1cc(F)cc(C(F)(F)F)c1)n2C [Compound 148, [2-(3-Fluoro-5-trifluoromethyl-phenyl)-1,6-dimethyl-1H-benzoimidazol-5-yl]-(4-pyridin-3-yl-thiazol-2-yl)-amine] |
| ≥ 6.00 | Cc1cc2[nH]c(-c3cc(F)cc(C(F)(F)F)c3)nc2cc1Nc1nc(-c2ccncc2)cs1 [Compound 149, [2-(3-Fluoro-5-trifluoromethyl-phenyl)-6-methyl-1H-benzoimidazol-5-yl]-(4-pyridin-4-yl-thiazol-2-yl)-amine] |
| ≥ 6.00 | Cc1cc2[nH]c(-c3cccc(C(C)C)c3)nc2cc1Nc1nc(-c2ccncc2)cs1 [Compound 150, [2-(3-Isopropyl-phenyl)-6-methyl-1H-benzoimidazol-5-yl]-(4-pyridin-4-yl-thiazol-2-yl)-amine] |
| ≥ 6.00 | Cc1cc2c(cc1Nc1nc(-c3ccncc3)cs1)nc(-c1cccc(C(C)C)c1)n2C [Compound 151, [2-(3-Isopropyl-phenyl)-1,6-dimethyl-1H-benzoimidazol-5-yl]-(4-pyridin-4-yl-thiazol-2-yl)-amine] |
| ≥ 6.00 | Cc1cc2c(cc1Nc1nc(-c3ccncc3)cs1)nc(-c1cccc(C(C)(C)C)c1)n2C [Compound 152, [2-(3-tert-Butyl-phenyl)-1,6-dimethyl-1H-benzoimidazol-5-yl]-(4-pyridin-4-yl-thiazol-2-yl)-amine] |
| ≥ 6.00 | Cc1cc2[nH]c(-c3cccc(C(C)(C)C)c3)nc2cc1Nc1nc(-c2ccncc2)cs1 [Compound 153, [2-(3-tert-Butyl-phenyl)-6-methyl-1H-benzoimidazol-5-yl]-(4-pyridin-4-yl-thiazol-2-yl)-amine] |
| ≥ 6.00 | Cc1cc2[nH]c(-c3cccc(C(C)(C)C)c3)nc2cc1Nc1nc(-c2ccc(C#N)cc2)cs1 [Compound 154, 4-{2-[2-(3-tert-Butyl-phenyl)-6-methyl-1H-benzoimidazol-5-ylamino]-thiazol-4-yl}-benzonitrile] |

Reference: patent publication US10202370B2, “Benzimidazole derivatives as selective proteine kinase inhibitors” (AB SCIENCE, priority 2013, dated 2019)
